ChEMBL document CHEMBL2029332, “Identification of binding specificity-determining features in protein families” (J Med Chem, 2012)

Experiments:
[1] = biological target: T1, Tyrosine-protein kinase ZAP-70 (Homo sapiens, UniProt P43403); experiment: Inhibition of human recombinant ZAP70 using EEEEYEEEE as substrate by ESI-MS analysis
T1 sequence (P43403 whole entry): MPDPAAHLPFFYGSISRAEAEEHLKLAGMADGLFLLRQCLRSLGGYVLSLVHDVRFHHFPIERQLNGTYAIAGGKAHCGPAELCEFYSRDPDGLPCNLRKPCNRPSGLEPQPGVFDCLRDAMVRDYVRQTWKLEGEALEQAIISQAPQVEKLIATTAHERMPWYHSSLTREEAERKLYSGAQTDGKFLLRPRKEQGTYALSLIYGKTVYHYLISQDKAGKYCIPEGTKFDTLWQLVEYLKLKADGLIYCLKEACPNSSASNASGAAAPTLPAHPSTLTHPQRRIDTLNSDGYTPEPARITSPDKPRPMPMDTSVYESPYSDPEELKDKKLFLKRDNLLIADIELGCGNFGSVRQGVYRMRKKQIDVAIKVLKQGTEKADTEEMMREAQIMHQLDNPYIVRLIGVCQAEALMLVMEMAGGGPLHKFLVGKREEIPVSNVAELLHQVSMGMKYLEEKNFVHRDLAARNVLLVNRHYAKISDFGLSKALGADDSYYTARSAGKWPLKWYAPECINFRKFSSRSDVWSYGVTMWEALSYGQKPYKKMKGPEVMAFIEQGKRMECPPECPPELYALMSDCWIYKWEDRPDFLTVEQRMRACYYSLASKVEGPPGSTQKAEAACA

[2] = biological target: Protein-tyrosine kinase 2-beta (Homo sapiens, UniProt Q14289); experiment: Inhibition of human recombinant PYK2 by ESI-MS analysis
Sequence of Protein-tyrosine kinase 2-beta (Q14289 whole entry): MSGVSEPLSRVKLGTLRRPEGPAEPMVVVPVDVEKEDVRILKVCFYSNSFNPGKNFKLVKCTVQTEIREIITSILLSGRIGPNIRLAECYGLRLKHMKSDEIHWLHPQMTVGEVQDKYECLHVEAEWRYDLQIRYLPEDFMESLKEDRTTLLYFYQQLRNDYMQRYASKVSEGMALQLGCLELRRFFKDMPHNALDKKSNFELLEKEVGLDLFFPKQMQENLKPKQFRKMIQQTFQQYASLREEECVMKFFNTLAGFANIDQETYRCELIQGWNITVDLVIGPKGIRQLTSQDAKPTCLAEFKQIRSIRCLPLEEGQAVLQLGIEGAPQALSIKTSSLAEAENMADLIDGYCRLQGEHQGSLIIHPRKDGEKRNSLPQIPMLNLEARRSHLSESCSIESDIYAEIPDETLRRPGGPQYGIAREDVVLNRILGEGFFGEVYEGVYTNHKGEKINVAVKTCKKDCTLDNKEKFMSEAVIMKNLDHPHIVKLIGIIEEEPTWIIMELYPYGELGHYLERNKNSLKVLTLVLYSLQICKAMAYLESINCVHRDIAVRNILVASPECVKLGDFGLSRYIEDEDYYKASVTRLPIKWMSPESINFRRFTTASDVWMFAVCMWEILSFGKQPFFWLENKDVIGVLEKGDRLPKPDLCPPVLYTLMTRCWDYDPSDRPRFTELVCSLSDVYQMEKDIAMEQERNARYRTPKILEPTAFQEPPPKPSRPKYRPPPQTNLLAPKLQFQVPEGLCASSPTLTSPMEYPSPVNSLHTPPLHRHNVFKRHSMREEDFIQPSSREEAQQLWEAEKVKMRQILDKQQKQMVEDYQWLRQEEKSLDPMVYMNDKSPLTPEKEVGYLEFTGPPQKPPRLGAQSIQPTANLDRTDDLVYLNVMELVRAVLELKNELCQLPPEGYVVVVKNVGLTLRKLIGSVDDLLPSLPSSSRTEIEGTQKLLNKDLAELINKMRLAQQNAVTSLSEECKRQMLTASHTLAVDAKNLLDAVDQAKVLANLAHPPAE

[3] = biological target: Cyclin-dependent kinase 2/cyclin E1 (Homo sapiens, UniProt P24941); experiment: Inhibition of human recombinant CDK2/CycE using HHASPRK as substrate by ESI-MS analysis; type: protein-complex assay

SMILES	Ki [1] [µM]	Ki [2] [µM]	Ki [3] [nM]
Cc1[nH]c(/C=C2\C(=O)Nc3ccc(S(=O)(=O)N(C)c4cccc(Cl)c4)cc32)c(C)c1C(=O)N1CCN(C)CC1	> 10	0.0105	490
NS(=O)(=O)c1ccc(Nc2nc(OCC3CCCCC3)c3nc[nH]c3n2)cc1	> 10	> 10	
NS(=O)(=O)c1ccc(N/N=C2\C(=O)Nc3ccc(Br)cc32)cc1	> 10	> 10	
CCCCc1c(-c2ccc(OC)cc2)[nH]c2nccnc12 [ALOISINE]	2.63	0.933	0.525
CN(C)c1ncnc2nc[nH]c12 [DIMETHYLADENINE]	> 10	> 10	1100
O=C1C(C2=C3C(=Nc4ccccc43)/C(=C\c3ccc(O)cc3)C2=O)=C2C(=Nc3ccccc32)/C1=C\c1ccc(O)cc1 [SCYTONEMIN]	1.55	> 10	372
N#CC(C#N)=Cc1ccc(O)c(O)c1 [TYRPHOSTIN 23]			617
